Test results reported in patent publication US20050187239A1 (priority 2002, published 2005).

Tested on: Male CD-1 mice
Details: mouse, in vivo

In the case of CCOC(=O)C1(c2ccccc2)CCN(C)CC1 [meperidine], the “interaction with a fixed dose of L-methadone (FIG. 1A)” value (from here on “interaction with a fixed dose”) (sc) is reported as “additive interactions”.
In the case of CCC(=O)C(C[C@H](C)N(C)C)(c1ccccc1)c1ccccc1 [D-Methadone, D-methadone], the “ED50 Value, Drug alone” value is reported as >>4 mg/kg s.c, the analgesic effect alone is reported as “did not show any effects alone” and the “effect on morphine responses when given together (FIG. 2)” value is reported as “did not influence morphine responses”.
For CCC(=O)C(C[C@@H](C)N(C)C)(c1ccccc1)c1ccccc1 [L-Methadone, L-methadone], the “ED50 Value, Drug alone” value was 1.9 ± 0.2 mg/kg s.c, the ED80 dose was 4 mg/kg s.c and the “effect on morphine responses when given together (FIG. 2)” value was “did reveal synergy”. For the same molecule, the “interaction with morphine (FIG. 1B)” value (sc) was “greater than additive interactions”.
For CN1CC[C@]23c4c5ccc(O)c4O[C@H]2[C@@H](O[C@@H]2O[C@H](C(=O)O)[C@@H](O)[C@H](O)[C@H]2O)C=C[C@H]3[C@H]1C5 [M6G, morphine-6β-glucuronide], the “ED50 Value, Combination (Total Drug Dose), Additive (predicted)” value (from here on “ED50 Value, Combination … (predicted)”) was 2.80 ± 0.21 mg/kg s.c, the “ED50 Value, Combination (Total Drug Dose), Observed” value (from here on “ED50 Value, Combination … Observed”) was 1.03 ± 0.34 mg/kg s.c and the “ED50 Value, Drug alone” value was 3.7 ± 0.4 mg/kg s.c. The “isobolographic analysis: combination with methadone versus composite additive line (FIG. 3)” value was “significantly greater than the composite additive line” and the “interaction with a fixed dose” value (sc) was “greater than the sum of their independent actions”.
CN1CC[C@]23c4c5ccc(O)c4O[C@H]2[C@@H](O)C=C[C@H]3[C@H]1C5 [Morphine, morphine] was tested, and the “ED50 Value, Combination … (predicted)” value was 3.11 ± 0.32 mg/kg s.c, the “ED50 Value, Combination … Observed” value was 0.83 ± 0.12 mg/kg s.c and the “ED50 Value, Drug alone” value was 4.7 ± 1.1 mg/kg s.c. The “analgesic activity of the combination versus additivity (FIG. 4)” value was “significantly greater than additive”, the “isobolographic analysis: combination with methadone versus composite additive line (FIG. 3)” value was “significant greater than the composite additive line” and the “interaction with a fixed dose” value (sc) was “greater than the sum of their independent actions”.
For CN1CC[C@]23c4c5ccc(O)c4O[C@H]2C(=O)CC[C@@]3(O)[C@H]1C5 [oxymorphone], the “interaction with a fixed dose” value (sc) was “additive interactions”.
In the case of COc1ccc2c3c1O[C@H]1[C@@H](O)C=C[C@H]4[C@@H](C2)N(C)CC[C@@]341 [Codeine, codeine], the “ED50 Value, Combination … (predicted)” value is reported as 2.79 ± 0.22 mg/kg s.c, the “ED50 Value, Combination … Observed” value is reported as 0.74 ± 0.10 mg/kg s.c and the “ED50 Value, Drug alone” value is reported as 3.7 ± 0.4 mg/kg s.c. For the same molecule, the “isobolographic analysis: combination with methadone versus composite additive line (FIG. 3)” value was “significantly greater than the composite additive line” and the “interaction with a fixed dose” value (sc) was “greater than additive responses”.
COc1ccc2c3c1O[C@H]1C(=O)CC[C@@]4(O)[C@@H](C2)N(C)CC[C@]314 [oxycodone] was tested, and the “interaction with a fixed dose” value (sc) was “additive interactions”.
